Results on 24 compounds are retold here after ChEMBL document CHEMBL4387750, “Backbone modifications in peptidic inhibitors of flaviviral proteases” (Bioorg Med Chem Lett, 2019).

Where a SMILES comes first, the peptide text is derived from it. [ ]: non-standard residue; d: D form. The star is where a group is joined. dPhg = N[C@@H](C(=O)O)c1ccccc1; Phg = N[C@H](C(=O)O)c1ccccc1; Bz = O=C(c1ccccc1)*

Data set [1] has as its target T1, Trypsin (Homo sapiens, UniProt P07477+P07478+P35030). The data set is described as follows: Inhibition of trypsin (unknown origin) at 50 uM preincubated with protein for 15 mins followed by boc-Val-Pro-Arg-AMC substrate addition and measured by continuous fluorometric analysis relative to control. In kind it is protein assay.
Data set [2] deals with Genome polyprotein (West Nile virus) (UniProt P06935). The data set can be described thus: Inhibition of West Nile virus NS2B-NS3 protease preincubated with protein for 15 mins followed by Abz-Gly-Leu-Lys-Arg-Gly-Gly-3-(NO2)-Tyr substrate addition and measured by continuous fluorometric analysis relative to control. Further details: concentration or dose not given beside the values.

For data set [3], the target named is Prothrombin (Homo sapiens) (UniProt P00734). The data set is described as follows: Inhibition of human thrombin at 25 uM preincubated with protein for 15 mins followed by boc-Val-Pro-Arg-AMC substrate addition and measured after 10 mins by continuous fluorometric analysis relative to control.
Data set [4] concerns the target Genome polyprotein (dengue virus type 2) (UniProt P29990). The data set can be described thus: Inhibition of Dengue virus serotype 2 NS2B-NS3 protease at 50 uM preincubated with protein for 15 mins followed by Abz-Nle-Lys-Arg-Arg-Ser-3-(NO2)Tyr substrate addition and measured by continuous fluorometric analysis relative to control.
Data set [5] is described as follows: Metabolic stability in Sprague-Dawley rat liver microsomes assessed as compound degradation by measuring half life incubated for 120 mins by HPLC and UV analysis. In kind it is ADME, Microsome. The following applies: for Stability: microsomes, 2 h.
Data set [6] addresses Genome polyprotein (dengue virus type 2, UniProt P29990). The data set can be described thus: Inhibition of Dengue virus serotype 2 NS2B-NS3 protease preincubated with protein for 15 mins followed by Abz-Nle-Lys-Arg-Arg-Ser-3-(NO2)Tyr substrate addition and measured by continuous fluorometric analysis.
Data set [7] has as its target Genome polyprotein (West Nile virus, UniProt P06935). The data set can be described thus: Inhibition of West Nile virus NS2B-NS3 protease preincubated with protein for 15 mins followed by Abz-Gly-Leu-Lys-Arg-Gly-Gly-3-(NO2)-Tyr substrate addition and measured by continuous fluorometric analysis.
Data set [8] addresses T1, Trypsin. The data set can be described thus: Metabolic stability assessed as trypsin (unknown origin)-mediated drug degradation by measuring half life in pH 7.5 Tris buffer incubated up to 60 mins at 37 degC by HPLC and UV analysis. In kind it is ADME, protein assay. The following applies: pH 7.5, 1 h.
Data set [9] in a line: Metabolic stability assessed as alpha-chymotrypsin (unknown origin)-mediated drug degradation by measuring half life in pH 7.4 phosphate buffer incubated up to 60 mins at 37 degC by HPLC and UV analysis. In kind it is ADME. The following applies: human; for Stability: buffer, pH 7.4, 1 h.
Data set [10] is described as follows: Metabolic stability in Sprague-Dawley rat liver microsomes assessed as compound remaining after 120 mins by HPLC and UV analysis. In kind it is ADME, Microsome. The following applies: read-out: Stability.

As usually defined, the inhibition is the change of the read-out against control, counted positive when it falls. Usually IC50 stands for the concentration needed to halve the response being measured. A word on the half-life: it is how long it takes for the measured level to halve.

Chain of Genome polyprotein (West Nile virus, UniProt P06935) (P06935 1371-1501 limits assumed): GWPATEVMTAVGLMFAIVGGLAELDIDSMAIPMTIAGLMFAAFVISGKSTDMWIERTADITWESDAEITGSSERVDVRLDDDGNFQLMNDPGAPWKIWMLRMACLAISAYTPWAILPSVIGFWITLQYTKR
Chain of Genome polyprotein (West Nile virus, UniProt P06935) (P06935 1502-2120 limits assumed): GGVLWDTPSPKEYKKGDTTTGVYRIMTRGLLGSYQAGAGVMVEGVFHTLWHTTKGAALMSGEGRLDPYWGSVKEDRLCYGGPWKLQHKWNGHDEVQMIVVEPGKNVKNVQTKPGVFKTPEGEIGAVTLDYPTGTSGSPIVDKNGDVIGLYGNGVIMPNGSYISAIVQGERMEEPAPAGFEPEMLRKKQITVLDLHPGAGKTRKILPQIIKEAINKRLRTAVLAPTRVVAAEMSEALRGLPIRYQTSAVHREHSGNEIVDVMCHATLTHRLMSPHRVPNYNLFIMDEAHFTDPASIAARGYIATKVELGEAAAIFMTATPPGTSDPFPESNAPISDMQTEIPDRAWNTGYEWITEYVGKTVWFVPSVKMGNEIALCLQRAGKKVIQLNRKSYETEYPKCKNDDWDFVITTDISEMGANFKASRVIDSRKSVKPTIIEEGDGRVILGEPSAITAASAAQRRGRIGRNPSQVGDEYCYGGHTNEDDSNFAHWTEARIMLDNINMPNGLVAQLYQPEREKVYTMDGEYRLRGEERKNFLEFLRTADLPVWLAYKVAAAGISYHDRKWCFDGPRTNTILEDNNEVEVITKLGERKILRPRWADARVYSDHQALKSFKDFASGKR
Chain of Genome polyprotein (West Nile virus) (P06935 whole entry): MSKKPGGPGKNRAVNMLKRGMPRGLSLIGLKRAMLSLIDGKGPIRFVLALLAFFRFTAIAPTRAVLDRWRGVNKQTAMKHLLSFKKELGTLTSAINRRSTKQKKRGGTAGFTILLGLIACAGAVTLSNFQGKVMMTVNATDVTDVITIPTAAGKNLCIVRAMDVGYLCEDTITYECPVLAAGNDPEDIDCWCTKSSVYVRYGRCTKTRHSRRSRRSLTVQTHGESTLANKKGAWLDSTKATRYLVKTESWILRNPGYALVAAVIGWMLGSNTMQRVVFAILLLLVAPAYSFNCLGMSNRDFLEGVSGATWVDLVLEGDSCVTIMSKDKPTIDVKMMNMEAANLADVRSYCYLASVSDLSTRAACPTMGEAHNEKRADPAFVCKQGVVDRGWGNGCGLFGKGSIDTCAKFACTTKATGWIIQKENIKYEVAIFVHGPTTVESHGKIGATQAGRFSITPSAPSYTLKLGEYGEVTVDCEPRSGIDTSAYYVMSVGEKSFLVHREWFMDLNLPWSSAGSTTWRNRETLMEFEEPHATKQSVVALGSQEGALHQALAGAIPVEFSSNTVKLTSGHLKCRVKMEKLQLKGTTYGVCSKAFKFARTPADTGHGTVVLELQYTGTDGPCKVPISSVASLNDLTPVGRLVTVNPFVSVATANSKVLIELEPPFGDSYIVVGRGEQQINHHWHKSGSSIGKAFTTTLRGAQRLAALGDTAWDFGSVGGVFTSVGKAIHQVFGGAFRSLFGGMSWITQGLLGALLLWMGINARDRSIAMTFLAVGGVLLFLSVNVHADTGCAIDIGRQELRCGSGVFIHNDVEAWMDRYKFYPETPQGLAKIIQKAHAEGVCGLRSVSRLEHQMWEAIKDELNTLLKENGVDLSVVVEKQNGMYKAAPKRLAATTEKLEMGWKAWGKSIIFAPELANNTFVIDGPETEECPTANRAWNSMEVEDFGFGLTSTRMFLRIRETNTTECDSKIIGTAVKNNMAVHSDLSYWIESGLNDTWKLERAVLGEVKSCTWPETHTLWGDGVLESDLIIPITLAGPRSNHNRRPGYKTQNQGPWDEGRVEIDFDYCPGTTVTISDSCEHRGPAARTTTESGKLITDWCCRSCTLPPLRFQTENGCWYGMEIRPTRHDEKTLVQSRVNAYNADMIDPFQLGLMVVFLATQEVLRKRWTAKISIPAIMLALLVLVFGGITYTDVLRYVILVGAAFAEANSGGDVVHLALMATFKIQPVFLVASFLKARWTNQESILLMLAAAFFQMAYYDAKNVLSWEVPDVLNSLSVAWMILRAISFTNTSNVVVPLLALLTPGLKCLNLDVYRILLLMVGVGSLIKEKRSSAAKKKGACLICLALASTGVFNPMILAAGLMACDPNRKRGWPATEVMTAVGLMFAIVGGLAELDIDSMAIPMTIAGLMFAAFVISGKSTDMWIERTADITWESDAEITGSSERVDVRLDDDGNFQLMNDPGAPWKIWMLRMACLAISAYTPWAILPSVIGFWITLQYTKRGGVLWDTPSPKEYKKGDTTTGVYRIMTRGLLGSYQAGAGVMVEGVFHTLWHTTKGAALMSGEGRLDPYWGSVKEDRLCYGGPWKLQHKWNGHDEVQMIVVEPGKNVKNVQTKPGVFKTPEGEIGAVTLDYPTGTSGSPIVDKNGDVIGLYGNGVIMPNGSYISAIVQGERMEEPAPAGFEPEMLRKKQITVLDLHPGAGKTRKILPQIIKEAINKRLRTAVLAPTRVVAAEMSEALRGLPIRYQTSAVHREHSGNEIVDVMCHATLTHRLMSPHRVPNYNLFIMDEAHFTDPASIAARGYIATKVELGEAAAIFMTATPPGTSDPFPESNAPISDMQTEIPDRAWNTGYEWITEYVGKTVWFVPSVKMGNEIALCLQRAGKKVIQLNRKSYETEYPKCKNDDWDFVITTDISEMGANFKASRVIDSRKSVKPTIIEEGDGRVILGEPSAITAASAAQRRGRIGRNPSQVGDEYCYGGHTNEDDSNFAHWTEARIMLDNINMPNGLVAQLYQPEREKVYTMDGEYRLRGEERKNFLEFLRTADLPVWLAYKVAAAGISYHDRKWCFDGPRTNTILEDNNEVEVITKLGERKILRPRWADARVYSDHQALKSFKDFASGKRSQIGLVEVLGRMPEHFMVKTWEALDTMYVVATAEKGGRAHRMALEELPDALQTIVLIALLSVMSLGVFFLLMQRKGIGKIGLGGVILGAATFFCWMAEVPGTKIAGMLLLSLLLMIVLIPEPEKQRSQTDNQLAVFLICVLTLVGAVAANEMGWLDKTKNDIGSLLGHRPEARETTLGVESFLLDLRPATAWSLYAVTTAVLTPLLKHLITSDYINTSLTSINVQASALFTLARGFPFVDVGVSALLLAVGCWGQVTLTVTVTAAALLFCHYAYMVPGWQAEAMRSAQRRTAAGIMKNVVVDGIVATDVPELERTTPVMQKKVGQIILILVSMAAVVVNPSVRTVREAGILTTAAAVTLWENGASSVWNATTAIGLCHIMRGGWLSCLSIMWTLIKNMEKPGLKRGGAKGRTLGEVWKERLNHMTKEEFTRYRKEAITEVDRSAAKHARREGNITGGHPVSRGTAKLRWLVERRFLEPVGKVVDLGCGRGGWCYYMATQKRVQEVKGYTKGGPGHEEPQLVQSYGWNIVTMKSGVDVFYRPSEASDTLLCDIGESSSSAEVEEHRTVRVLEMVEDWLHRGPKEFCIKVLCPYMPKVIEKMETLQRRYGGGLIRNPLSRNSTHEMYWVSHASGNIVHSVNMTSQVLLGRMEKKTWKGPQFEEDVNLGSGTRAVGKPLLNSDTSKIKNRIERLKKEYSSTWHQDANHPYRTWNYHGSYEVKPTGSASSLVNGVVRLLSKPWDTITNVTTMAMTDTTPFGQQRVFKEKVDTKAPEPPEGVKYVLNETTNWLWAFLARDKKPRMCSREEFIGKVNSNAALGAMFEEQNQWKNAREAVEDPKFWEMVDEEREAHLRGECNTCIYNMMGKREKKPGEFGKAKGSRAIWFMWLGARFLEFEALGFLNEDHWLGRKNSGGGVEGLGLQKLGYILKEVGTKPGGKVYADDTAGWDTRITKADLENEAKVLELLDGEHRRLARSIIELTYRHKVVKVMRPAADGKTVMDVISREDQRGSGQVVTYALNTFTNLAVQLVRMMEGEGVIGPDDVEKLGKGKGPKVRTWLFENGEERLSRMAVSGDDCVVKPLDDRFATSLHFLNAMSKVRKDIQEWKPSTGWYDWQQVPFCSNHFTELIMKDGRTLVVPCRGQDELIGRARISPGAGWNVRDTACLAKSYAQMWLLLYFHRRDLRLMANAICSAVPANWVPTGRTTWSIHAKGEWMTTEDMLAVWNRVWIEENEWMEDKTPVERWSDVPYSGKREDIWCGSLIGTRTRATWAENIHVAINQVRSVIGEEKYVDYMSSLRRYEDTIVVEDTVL

Turning to `N=C(N)NCCC[C@H](NC(=O)c1ccccc1)C(=O)N[C@@H](CCCCN)CC(=O)N(CC(N)=O)c1ccccc1`, the inhibition is < 5% on Trypsin [1], 17.7% in [2], < 5% in data set [3] and 22.7% in data set [4].

For `CN(C(=O)c1ccccc1)[C@@H](CCCNC(=N)N)C(=O)N[C@@H](CCCCN)C(=O)N[C@@H](C(N)=O)c1ccc(OCc2ccccc2)cc1`, the inhibition is < 5% at Trypsin [1], 92% in [2], 5.5% in [3] and 97.8% in data set [4]. In addition, the Stability result in data set [5] is “Stable”. For the same compound, the IC50 against Genome polyprotein [6] is 1.6 µM; against Genome polyprotein [7] it was 7.1 µM.

As to `C[C@](NC(=O)[C@H](CCCCN)NC(=O)[C@H](CCCNC(=N)N)NC(=O)c1ccccc1)(C(N)=O)c1ccccc1`, the inhibition against Trypsin [1] is 11.8%; in data set [2] it was 82.5%; in [3] it was 6.5%; in data set [4], 99.1%. The Stability entry (in [5]; on Trypsin [8]; in [9]) was “Stable” throughout. Also, the IC50 on Genome polyprotein [6] worked out at 0.6 µM; at Genome polyprotein [7], 14.3 µM.

Regarding `N=C(N)NCCC[C@H](NC(=O)c1ccccc1)C(=O)N[C@@H](CCCCN)C(=O)N[C@@H](CC(N)=O)c1ccccc1`, the inhibition at Trypsin [1] is 7.5%; in data set [2], 12.6%; in data set [3], < 5%; in data set [4] it was 17.6%.

On to `CC(NC(=O)[C@H](CCCCN)NC(=O)[C@H](CCCNC(=N)N)NC(=O)c1ccccc1)(C(N)=O)c1ccccc1` (stereo partly drawn), for which the inhibition was < 5% against Trypsin [1], 59.8% in data set [2], 9.1% in [3] and 97.8% in data set [4]. Also, the IC50 against Genome polyprotein [6] came to 1.3 µM; on Genome polyprotein [7] it was 24.3 µM.

As for `N=C(N)NCCCN(CC(=O)N[C@@H](CCCCN)C(=O)N[C@@H](C(N)=O)c1ccccc1)C(=O)c1ccccc1`, the inhibition was < 5% at Trypsin [1], 12.4% in data set [2], < 5% in [3] and 32.7% in data set [4].

In the case of `N=C(N)NCCC[C@H](NC(=O)c1ccccc1)C(=O)N[C@@H](CCCCN)C(=O)N[C@H](C(N)=O)c1ccccc1` (Bz-Arg-Lys-[Phg]-NH2), the inhibition is < 5% at Trypsin [1], < 5% in [3] and 95% in data set [4]. On Genome polyprotein [6], this compound registered an IC50 of 3.3 µM.

Take `N=C(N)NCCC[C@H](NC(=O)c1ccccc1)C(=O)N[C@@H](CCCCN)C(=O)NC(C(N)=O)(c1ccccc1)c1ccccc1`: the inhibition is 45.5% on Trypsin [1], 33.3% in [2], < 5% in data set [3] and 20.6% in [4].

Turning to `CN(C(=O)c1ccccc1)[C@@H](CCCNC(=N)N)C(=O)N[C@@H](CCCCN)C(=O)N[C@@H](C(N)=O)c1ccccc1`, the inhibition on Trypsin [1] was < 5%; in data set [2] it was 48.4%; in data set [3], < 5%; in data set [4] it was 93.6%. Further, the Stability result (in data set [5]; at Trypsin [8]; in data set [9]) was “Stable” each time. At Genome polyprotein [6], this compound displayed an IC50 of 3.6 µM.

`N=C(N)NCCC[C@H](N[C@H](c1ccccc1)C(F)(F)F)C(=O)N[C@@H](CCCCN)C(=O)N[C@@H](C(N)=O)c1ccccc1`: the inhibition was < 5% against Trypsin [1], 24.6% in data set [2], < 5% in [3] and 43.7% in [4].

For `CN(C(=O)[C@H](CCCCN)NC(=O)[C@H](CCCNC(=N)N)NC(=O)c1ccccc1)[C@@H](C(N)=O)c1ccccc1`, the inhibition on Trypsin [1] is < 5%; in data set [2], 36.7%; in data set [3], < 5%; in data set [4], 33%.

In the case of `C[C@@](NC(=O)[C@H](CCCCN)NC(=O)[C@H](CCCNC(=N)N)NC(=O)c1ccccc1)(C(N)=O)c1ccccc1`, the inhibition at Trypsin [1] was 20.7%; in [2], 47.4%; in data set [3], < 5%; in data set [4], 81.7%. For the same compound, the IC50 against Genome polyprotein [6] amounted to 9.5 µM.

Consider `CCC(NC(=O)[C@H](CCCCN)NC(=O)[C@H](CCCNC(=N)N)NC(=O)c1ccccc1)(C(N)=O)c1ccccc1` (stereo partly drawn), for which the inhibition at Trypsin [1] is 8.7%; in data set [2] it was 12.1%; in data set [3], < 5%; in data set [4] it was 35.2%.

Take `N=C(N)NCCC[C@H](NC(=O)c1ccccc1)C(=O)N(CCCCN)CC(=O)N[C@@H](C(N)=O)c1ccccc1`: the inhibition against Trypsin [1] is 10.6%; in data set [2], 18.4%; in data set [3] it was < 5%; in [4], < 5%.

As for `N=C(N)NCCC[C@H](N[C@@H](c1ccccc1)C(F)(F)F)C(=O)N[C@@H](CCCCN)C(=O)N[C@@H](C(N)=O)c1ccccc1`, the inhibition was < 5% at Trypsin [1], 6% in data set [2], < 5% in [3] and 32.1% in data set [4].

For the compound `CN(C(=O)[C@H](CCCNC(=N)N)NC(=O)c1ccccc1)[C@@H](CCCCN)C(=O)N[C@@H](C(N)=O)c1ccccc1`, the inhibition on Trypsin [1] is < 5%; in data set [2], < 5%; in data set [3] it was < 5%; in data set [4], 36.3%.

With `CN(C(=O)c1ccccc1)[C@@H](CCCNC(=N)N)C(=O)N[C@@H](CCCCN)C(=O)N[C@@](C)(C(N)=O)c1ccccc1`, the inhibition at Trypsin [1] was 10.9%; in [2], 50.8%; in data set [3] it was < 5%; in data set [4], 93.9%. On Genome polyprotein [6], inhibition was half-maximal at 3 µM (IC50).

On to `N=C(N)NCCC[C@H](NC(=O)c1ccccc1)C(=O)N[C@@H](CCCCN)C(=O)N[C@@H](C(N)=O)c1ccccc1` (Bz-Arg-Lys-[dPhg]-NH2), for which the inhibition against Trypsin [1] is 12.5%; in data set [2] it was 99%; in data set [3] it was < 5%; in [4], 99.3%. The Stability entry (in [5]; at Trypsin [8]) was “Stable” each time. For the same compound, the half-life in [9] (alpha-chymotrypsin in phosphate buffer, pH 7.4) was 11 min. In addition, the IC50 against Genome polyprotein [6] and at Genome polyprotein [7] was 3.8 µM each time.

For `N=C(N)NCCC[C@H](NC(=O)C(=O)c1ccccc1)C(=O)N[C@@H](CCCCN)C(=O)N[C@@H](C(N)=O)c1ccccc1`, the inhibition against Trypsin [1] is 33.5%; in data set [2], 43.2%; in [3] it was < 5%; in data set [4], 94%. Besides, 4.1 µM corresponded to half-maximal inhibition on Genome polyprotein [6] (IC50).

With `N=C(N)NCCC[C@H](NC(=O)c1ccccc1)C(=O)N[C@@H](CCCCN)C(=O)N(CC(N)=O)c1ccccc1`, the inhibition was < 5% at Trypsin [1], 19.8% in data set [2], < 5% in data set [3] and 28.9% in [4].

For the compound `C[C@]12CC[C@H]3[C@@H](CCC4=CC(=O)CC[C@@]43C)[C@@H]1CC[C@@H]2O` [TESTOSTERONE], the half-life in [5] (Sprague-Dawley, liver microsomes) fell in the range of 9 to 35 min.

As for `N=C(N)NCCC[C@H](NC(=O)c1ccccc1)C(=O)N[C@@H](CCCCN)CC(=O)N[C@@H](C(N)=O)c1ccccc1`, the inhibition against Trypsin [1] is < 5%; in data set [2], 14.6%; in data set [3] it was < 5%; in data set [4] it was 31.8%.

As to `N=C(N)NCCC[C@@H](NC(=O)[C@@H](N)Cc1ccc(O)cc1)C(=O)N[C@@H](Cc1ccccc1)C(=O)N[C@@H](Cc1ccccc1)C(N)=O` (H-Y[dR]FF-NH2), the remaining at 2 h in data set [10] is 85%. Moreover, the Stability result is listed as “Stable” at Trypsin [8] and “Unstable” in data set [9].

Consider `N=C(N)NCCC[C@H](NC(=O)c1ccccc1)C(=O)N[C@@H](CCCCN)C(=O)N[C@@H](C(N)=O)c1ccc(OCc2ccccc2)cc1`, for which the inhibition came to 18.4% at Trypsin [1], 101% in data set [2], 7.8% in data set [3] and 100% in data set [4]. Also, the Stability entry (in data set [5]; on Trypsin [8]) was “Stable” in each case. Moreover, the IC50 at Genome polyprotein [6] was 0.4 µM; against Genome polyprotein [7] it was 0.8 µM.
